Source: PubChem BioAssay (NCI)
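Growth conditions: 96-well plates. Treatment: test compound, 48 hours, 5 concentrations. Analysis: linear interpolation between bracketing concentrations; unreached endpoints set to highest concentration. TGI marks complete inhibition of growth.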

What was measured:
Experiment in all cases: DTP human tumour cell line panel, 48 h
OVCAR-3 ovarian = tested on: OVCAR-3 ovarian
HT29 colon = tested on: HT29 colon
SK-MEL-5 melanoma = tested on: SK-MEL-5 melanoma
MDA-MB-231 breast = tested on: MDA-MB-231 breast
NCI/ADR-RES ovarian = tested on: NCI/ADR-RES ovarian
HOP-92 NSCLC = tested on: HOP-92 NSCLC
ACHN renal = tested on: ACHN renal
MDA-MB-435 = tested on: MDA-MB-435
TK-10 renal = tested on: TK-10 renal
MALME-3M melanoma = tested on: MALME-3M melanoma
SF-295 CNS = tested on: SF-295 CNS
NCI-H522 lung = tested on: NCI-H522 lung
MOLT-4 leukemia = tested on: MOLT-4 leukemia
UACC-62 melanoma = tested on: UACC-62 melanoma
NCI-H460 lung = tested on: NCI-H460 lung
KM12 colon = tested on: KM12 colon
OVCAR-4 ovarian = tested on: OVCAR-4 ovarian
DU-145 prostate = tested on: DU-145 prostate
SNB-19 CNS = tested on: SNB-19 CNS
RXF 393 renal = tested on: RXF 393 renal
EKVX NSCLC = tested on: EKVX NSCLC
CAKI-1 renal = tested on: CAKI-1 renal
K-562 leukemia = tested on: K-562 leukemia
HOP-62 NSCLC = tested on: HOP-62 NSCLC
NCI-H226 lung = tested on: NCI-H226 lung
LOX IMVI melanoma = tested on: LOX IMVI melanoma
A549 NSCLC = tested on: A549 NSCLC
NCI-H23 lung = tested on: NCI-H23 lung
T-47D breast = tested on: T-47D breast
PC-3 prostate = tested on: PC-3 prostate
SNB-75 CNS = tested on: SNB-75 CNS
OVCAR-8 ovarian = tested on: OVCAR-8 ovarian
HCC-2998 colon = tested on: HCC-2998 colon
BT-549 breast = tested on: BT-549 breast
COLO 205 colon = tested on: COLO 205 colon
SW-620 colon = tested on: SW-620 colon
UACC-257 melanoma = tested on: UACC-257 melanoma
CCRF-CEM leukemia = tested on: CCRF-CEM leukemia
IGROV1 ovarian = tested on: IGROV1 ovarian
HCT-15 colon = tested on: HCT-15 colon
SK-MEL-28 melanoma = tested on: SK-MEL-28 melanoma
SK-MEL-2 melanoma = tested on: SK-MEL-2 melanoma
A498 renal = tested on: A498 renal
HS 578T breast = tested on: HS 578T breast
RPMI-8226 leukemia = tested on: RPMI-8226 leukemia
HL-60(TB) leukemia = tested on: HL-60(TB) leukemia
MCF7 breast = tested on: MCF7 breast
SK-OV-3 ovarian = tested on: SK-OV-3 ovarian
HCT-116 colon = tested on: HCT-116 colon
U251 CNS = tested on: U251 CNS
SN12C renal = tested on: SN12C renal
SF-268 CNS = tested on: SF-268 CNS
786-0 renal = tested on: 786-0 renal
SF-539 CNS = tested on: SF-539 CNS
M14 melanoma = tested on: M14 melanoma
OVCAR-5 ovarian = tested on: OVCAR-5 ovarian
MDA-N = tested on: MDA-N
SR leukemia = tested on: SR leukemia
UO-31 renal = tested on: UO-31 renal

SMILES: COc1ccccc1/C=C\c1cnnc2ccccc12
- TGI (OVCAR-3 ovarian): > 10 µM
- TGI (HT29 colon): > 10 µM
- TGI (SK-MEL-5 melanoma): > 10 µM
- TGI (MDA-MB-231 breast): > 10 µM
- TGI (NCI/ADR-RES ovarian): > 10 µM
- TGI (HOP-92 NSCLC): 7.61 µM
- TGI (ACHN renal): > 10 µM
- TGI (MDA-MB-435): > 10 µM
- TGI (TK-10 renal): > 10 µM
- TGI (MALME-3M melanoma): > 10 µM
- TGI (SF-295 CNS): > 10 µM
- TGI (NCI-H522 lung): > 10 µM
- TGI (MOLT-4 leukemia): > 10 µM
- TGI (UACC-62 melanoma): > 10 µM
- TGI (NCI-H460 lung): > 10 µM
- TGI (KM12 colon): > 10 µM
- TGI (OVCAR-4 ovarian): > 10 µM
- TGI (DU-145 prostate): > 10 µM
- TGI (SNB-19 CNS): > 10 µM
- TGI (RXF 393 renal): > 10 µM
- TGI (EKVX NSCLC): > 10 µM
- TGI (CAKI-1 renal): > 10 µM
- TGI (K-562 leukemia): > 10 µM
- TGI (HOP-62 NSCLC): > 10 µM
- TGI (NCI-H226 lung): > 10 µM
- TGI (LOX IMVI melanoma): > 10 µM
- TGI (A549 NSCLC): > 10 µM
- TGI (NCI-H23 lung): > 10 µM
- TGI (T-47D breast): > 10 µM
- TGI (PC-3 prostate): > 10 µM
- TGI (SNB-75 CNS): > 10 µM
- TGI (OVCAR-8 ovarian): > 10 µM
- TGI (HCC-2998 colon): > 10 µM
- TGI (BT-549 breast): > 10 µM
- TGI (COLO 205 colon): > 10 µM
- TGI (SW-620 colon): > 10 µM
- TGI (UACC-257 melanoma): > 10 µM
- TGI (CCRF-CEM leukemia): > 10 µM
- TGI (IGROV1 ovarian): > 10 µM
- TGI (HCT-15 colon): > 10 µM
- TGI (SK-MEL-28 melanoma): > 10 µM
- TGI (SK-MEL-2 melanoma): > 10 µM
- TGI (A498 renal): > 10 µM
- TGI (HS 578T breast): > 10 µM
- TGI (RPMI-8226 leukemia): > 10 µM
- TGI (HL-60(TB) leukemia): > 10 µM
- TGI (MCF7 breast): > 10 µM
- TGI (SK-OV-3 ovarian): > 10 µM
- TGI (HCT-116 colon): > 10 µM
- TGI (U251 CNS): > 10 µM
- TGI (SN12C renal): > 10 µM
- TGI (SF-268 CNS): > 10 µM
- TGI (786-0 renal): > 10 µM
- TGI (SF-539 CNS): > 10 µM
- TGI (M14 melanoma): > 10 µM
- TGI (OVCAR-5 ovarian): > 10 µM
- TGI (MDA-N): 9.66 µM

SMILES: CCC1(CC)C(=O)CC[C@@]2(C)C1=CC[C@H]1[C@@H]3CC[C@H](O)[C@@]3(C)CC[C@@H]12
- TGI (OVCAR-3 ovarian): 45 µM
- TGI (HT29 colon): 28.5 µM
- TGI (SK-MEL-5 melanoma): > 100 µM
- TGI (MDA-MB-231 breast): > 100 µM
- TGI (NCI/ADR-RES ovarian): > 100 µM
- TGI (HOP-92 NSCLC): > 100 µM
- TGI (ACHN renal): > 100 µM
- TGI (MDA-MB-435): > 100 µM
- TGI (TK-10 renal): 41.9 µM
- TGI (MALME-3M melanoma): > 100 µM
- TGI (SF-295 CNS): 62.1 µM
- TGI (NCI-H522 lung): 78.6 µM
- TGI (MOLT-4 leukemia): 54.8 µM
- TGI (UACC-62 melanoma): > 100 µM
- TGI (NCI-H460 lung): 32.2 µM
- TGI (KM12 colon): > 100 µM
- TGI (OVCAR-4 ovarian): > 100 µM
- TGI (DU-145 prostate): 85.4 µM
- TGI (SNB-19 CNS): > 100 µM
- TGI (RXF 393 renal): > 100 µM
- TGI (EKVX NSCLC): > 100 µM
- TGI (CAKI-1 renal): > 100 µM
- TGI (K-562 leukemia): 37.3 µM
- TGI (HOP-62 NSCLC): 37 µM
- TGI (SR leukemia): 31.8 µM
- TGI (NCI-H226 lung): 87.5 µM
- TGI (LOX IMVI melanoma): 37.8 µM
- TGI (A549 NSCLC): 28.9 µM
- TGI (NCI-H23 lung): > 100 µM
- TGI (T-47D breast): 99.7 µM
- TGI (PC-3 prostate): > 100 µM
- TGI (SNB-75 CNS): > 100 µM
- TGI (OVCAR-8 ovarian): 56.5 µM
- TGI (BT-549 breast): > 100 µM
- TGI (COLO 205 colon): 88.9 µM
- TGI (SW-620 colon): 63.1 µM
- TGI (UACC-257 melanoma): 82.6 µM
- TGI (CCRF-CEM leukemia): 45.7 µM
- TGI (IGROV1 ovarian): > 100 µM
- TGI (HCT-15 colon): > 100 µM
- TGI (SK-MEL-28 melanoma): > 100 µM
- TGI (SK-MEL-2 melanoma): > 100 µM
- TGI (A498 renal): 44.6 µM
- TGI (HS 578T breast): 72.6 µM
- TGI (RPMI-8226 leukemia): 32.4 µM
- TGI (HL-60(TB) leukemia): 46.4 µM
- TGI (SK-OV-3 ovarian): > 100 µM
- TGI (HCT-116 colon): 63.8 µM
- TGI (UO-31 renal): 34.7 µM
- TGI (U251 CNS): 33.9 µM
- TGI (SN12C renal): 31.6 µM
- TGI (SF-268 CNS): 99.2 µM
- TGI (786-0 renal): 29.6 µM
- TGI (SF-539 CNS): > 100 µM
- TGI (M14 melanoma): > 100 µM
- TGI (OVCAR-5 ovarian): > 100 µM
- TGI (MDA-N): > 100 µM
